Data taken from patent publication US20120270251A1, “INHIBITION OF THE ACTIVITY OF KINASE AND SYNTHETASE ENZYMES” (CSIR, priority 2009, published 2012).
Where two headings read alike, the source gives them in different places.

What was measured:
Format in all cases: biochemical
[1] = target: Escherichia coli deadenylylated glutamine synthetase (GS0) (Escherichia coli, UniProt P0A9C5); details: for Hill factor (h): allosteric sigmoidal model
[2] = target: Escherichia coli adenylylated glutamine synthetase (GS12) (Escherichia coli, UniProt P0A9C5); details: for Hill factor (h): allosteric sigmoidal model
[3] = tested on: Saccharomyces cerevisiae hexokinase; test: Hexokinase steady-state kinetics, ATP vs C8D-ATP
[4] = target: T1, Escherichia coli acetate kinase (Escherichia coli, UniProt P0A6A3); test: Acetate kinase steady-state kinetics, ATP vs C8D-ATP
T1 construct: purchased Sigma A7437
Excerpt: Hexokinase from Saccharomyces cerevisiae Type F-300 (Sigma, H4502) and Acetate kinase from E. coli (Sigma, A7437) were purchased. The human adenylate kinase (AK1) gene in vector pLIG-SC1 was obtained from the Structural Genomics Consortium (code AK1A). The His-tagged AK1 was produced in Escherichia coli Origami (DE3) and purified using the Bio-Rad Profinia Purification System. […] The Mycobacterium tuberculosis shikimate kinase gene in pET15b (Novagen) was obtained from the group of Chris Abell, Cambridge University, UK. The his-tagged MtSK was produced in E. coli BL21 (DE3) and purified using the Bio-Rad Profinia Purification System. The pure protein was dialysed against 50 mM Tris (pH 7.5) and 1,000 mM NaCl. Adenylylated (GS12) and deadenylylated (GS0) glutamine synthetase were prepared as outlined below.
The assay was incubated at 30° C. for 30 minutes and stopped by the addition of 1 μl of 50% TCA. The formation of ADP was analysed by HPLC.
The results are reflected in FIGS. 19 to 25. […] The best-fit to the data was obtained for the specified kinetic model using the non-linear regression algorithms as outlined using the GraphPad Prism® 5 software. […] These response curves were then used to define the KIE by the conventional estimation of KIE from KIE=vH/vD. The KIED was also determined using the following function: […]

[5] = target: B. stearothermophilus phosphofructokinase (Geobacillus stearothermophilus, UniProt P00512); details: for Hill factor (h): allosteric sigmoidal model
[6] = target: T2, AK1 (Homo sapiens, UniProt P00568); test: AK1 enzyme activity with ATP versus deuterated ATP
T2 sequence (P00568 1-194): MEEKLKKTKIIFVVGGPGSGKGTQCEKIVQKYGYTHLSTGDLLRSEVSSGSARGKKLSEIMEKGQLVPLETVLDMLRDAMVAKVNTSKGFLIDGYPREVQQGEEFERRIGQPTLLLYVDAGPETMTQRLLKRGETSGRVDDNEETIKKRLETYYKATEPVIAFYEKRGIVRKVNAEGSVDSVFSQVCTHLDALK
Experimental: The assay is carried out in the presence of ATP and AMP measuring the formation of ADP. […] A kinetic isotope effect is also obtained when comparing the activity of the enzyme when the reaction is carried out in the presence of AMP and deuterated AMP. A further KIE is obtained when both deuterated ATP and deuterated AMP are used in the reaction. […] The KIE is obtained by dividing the activity of the enzyme in the presence of the proteated species (vH) by the enzyme activity in the presence of the deuterated species (vD) and is vH/vD=0.5. […] The proposed basic reaction mechanisms by which all forms of kinase are regulated occurs via either the formation of an immonium species at N7, which in turn induces the formation of a carbene at C8 or via the delocalization of electrons away from the C8 rendering the C8 more acidic. An immonium species may be induced at N7 by (1) protonation via a coordinated HCO3^−, (2) carboxylation of the N7, or (3) the coordination of an amino acid side chain within the active site such as a arginine, glutamine, lysine or histidine. The different forms of regulation are then based on the mechanism by which the carbene formed at C8 is stabilized and the mechanism by which the C8-H is deprotonated or via the interaction of the protein coordinated amino acid side chains affecting the delocalization of electrons around the adenyl ring of the nucleotide.

[7] = target: T2, AK1; test: Effect of ATPS and C8-D ATPS on synthesis of ADP by AK1; details: 0.2-1.0 mM, 0.6 mM ATP, 0.6 mM AMP, pH 7.2
Experimental: Increasing concentrations of ATPS or C8-D ATPS were added; 0.2, 0.4, 0.6, 0.8, and 1.0 mM. Assays, in a final volume of 1 ml, were allowed to proceed for 45 mins at 37° C., before 6 μl 100% TCA was added to stop the reaction. […] The assay where no ATPS or C8-D ATPS was added produced 0.19 mM ADP.

[8] = tested model: Allosteric sigmoidal

Chain of B. stearothermophilus phosphofructokinase (P00512 whole entry): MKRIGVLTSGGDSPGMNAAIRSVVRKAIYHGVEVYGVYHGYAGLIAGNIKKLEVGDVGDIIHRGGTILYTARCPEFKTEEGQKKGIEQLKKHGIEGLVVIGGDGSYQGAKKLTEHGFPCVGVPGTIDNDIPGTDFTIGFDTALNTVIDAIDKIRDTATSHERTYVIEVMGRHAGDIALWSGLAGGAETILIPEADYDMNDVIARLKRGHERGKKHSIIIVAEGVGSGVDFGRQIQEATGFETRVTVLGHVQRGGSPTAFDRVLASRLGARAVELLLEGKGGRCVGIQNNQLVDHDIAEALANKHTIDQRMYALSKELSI
Chain of Escherichia coli deadenylylated glutamine synthetase (GS0) (P0A9C5 2-469): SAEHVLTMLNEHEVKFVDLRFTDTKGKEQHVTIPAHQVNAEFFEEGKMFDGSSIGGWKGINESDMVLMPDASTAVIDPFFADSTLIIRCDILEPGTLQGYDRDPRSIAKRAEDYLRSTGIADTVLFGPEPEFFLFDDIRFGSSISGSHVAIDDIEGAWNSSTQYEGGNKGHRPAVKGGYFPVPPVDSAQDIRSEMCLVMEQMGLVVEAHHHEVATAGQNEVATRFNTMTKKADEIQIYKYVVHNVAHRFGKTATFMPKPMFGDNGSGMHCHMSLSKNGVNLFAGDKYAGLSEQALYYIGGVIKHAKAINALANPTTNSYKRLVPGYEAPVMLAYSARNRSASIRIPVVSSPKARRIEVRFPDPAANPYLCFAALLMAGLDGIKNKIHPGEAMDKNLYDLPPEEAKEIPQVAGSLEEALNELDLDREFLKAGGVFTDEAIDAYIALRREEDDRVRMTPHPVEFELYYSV
Chain of Escherichia coli adenylylated glutamine synthetase (GS12) (P0A9C5 2-469): as above
T1 sequence (P0A6A3 whole entry): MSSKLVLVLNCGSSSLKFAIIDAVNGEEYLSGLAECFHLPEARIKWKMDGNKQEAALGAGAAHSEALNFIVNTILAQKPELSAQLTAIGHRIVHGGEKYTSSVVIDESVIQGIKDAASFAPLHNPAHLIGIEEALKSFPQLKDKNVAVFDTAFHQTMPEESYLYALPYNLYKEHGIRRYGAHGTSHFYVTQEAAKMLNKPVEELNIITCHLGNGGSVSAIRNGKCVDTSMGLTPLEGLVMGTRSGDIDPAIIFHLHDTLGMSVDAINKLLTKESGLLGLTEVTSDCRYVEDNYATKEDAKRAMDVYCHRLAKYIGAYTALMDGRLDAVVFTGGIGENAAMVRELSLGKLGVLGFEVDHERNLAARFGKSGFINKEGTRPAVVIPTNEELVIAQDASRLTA

## Nc1ncnc2c1ncn2[C@@H]1O[C@H](COP(=O)(O)OP(=O)(O)OP(=O)(O)O)[C@@H](O)[C@H]1O [ATP, adenosine triphosphate, reference compound]
[1]
  Hill factor (h): 3.10
[1]; [8]
  fit to kinetic model: Allosteric sigmoidal
[1]; tested model: Michaelis-Menton
  fit to kinetic model: Fit ambiguous
[2]
  Hill factor (h): 1.77
[2]; [8]
  fit to kinetic model: Allosteric sigmoidal
[2]; tested model: Michaelis-Menton
  fit to kinetic model: Fit ambiguous
[3]; allosteric sigmoidal model
  Hill factor (h): 1.75
[3]; [8]
  fit to kinetic model: Allosteric sigmoidal
[3]; tested model: Michaelis-Menton
  fit to kinetic model: Fit ambiguous
[4]; allosteric sigmoidal model
  Hill factor (h): 2.08
[4]; [8]
  fit to kinetic model: Allosteric sigmoidal
[4]; tested model: Michaelis-Menton
  fit to kinetic model: Fit ambiguous
[5]
  Hill factor (h): 1.37
[6]; low ATP concentrations
  reduction in AK1 enzyme activity using ATP compared with ATP deuterated at position C8: 50%

## [2H]c1nc2c(N)ncnc2n1C1OC(COP(=O)(O)OP(=O)(O)OP(O)(O)=S)C(O)C1O (stereo not shown) [C8-D ATPS]
[7]
  inhibition of AK1: inhibit
  inhibition of AK1 compared with ATPS: significantly more inhibition

## Nc1ncnc2c1ncn2[C@@H]1O[C@H](COP(=O)(O)OP(=O)(O)OP(O)(O)=S)[C@@H](O)[C@H]1O [ATPS, Adenosine 5′-[γ-thio]triphosphate, reference compound]
[7]
  inhibition of AK1: inhibit

## Nc1ncnc2c1ncn2[C@@H]1O[C@H](COP(=O)(O)OP(=O)(O)OP(=O)(O)O)[C@@H](O)[C@H]1O [C8D-ATP]
[1]; KIE at maximum enzyme activity
  KIEvmax: 1
[1]
  Hill factor (h): 4.08
[1]; asymptote at Vmax
  KIED: 1
[1]; low ATP concentrations
  KIED: > 5
[1]; [8]
  fit to kinetic model: Allosteric sigmoidal
[1]; tested model: Michaelis-Menton
  fit to kinetic model: Fit ambiguous
[2]; KIE at maximum enzyme activity
  KIEvmax: 2
[2]
  Hill factor (h): 0.92
[2]; asymptote at Vmax
  KIED: 0.5
[2]; low ATP concentrations
  KIED: > 5
[2]; [8]
  fit to kinetic model: Allosteric sigmoidal
[2]; tested model: Michaelis-Menton
  fit to kinetic model: Fit ambiguous
[3]; KIE at maximum enzyme activity
  KIEvmax: 1
[3]; asymptote at Vmax
  KIED: 1
[3]; low ATP concentrations
  KIED: > 5
[3]; [8]
  fit to kinetic model: Fit ambiguous
[3]; tested model: Michaelis-Menton
  fit to kinetic model: Michaelis-Menton
[4]; KIE at maximum enzyme activity
  KIEvmax: 1
[4]; asymptote at Vmax
  KIED: 1
[4]; low ATP concentrations
  KIED: > 5
[4]; [8]
  fit to kinetic model: Fit ambiguous
[4]; tested model: Michaelis-Menton
  fit to kinetic model: Michaelis-Menton
[5]; KIE at maximum enzyme activity
  KIEvmax: 2
[5]
  Hill factor (h): 1.79
[5]; asymptote at Vmax
  KIED: 0.5
[5]; low ATP concentrations
  KIED: > 5
[5]; [8]
  fit to kinetic model: Allosteric sigmoidal
[5]; tested model: Michaelis-Menton
  fit to kinetic model: Fit ambiguous
[6]; high ATP concentrations
  reduction in AK1 activity in the presence of deuterated ATP: ≥ 50%
